Test: mn = molality of the nth substance listed, in mol/kg
Details: 84.5 kPa, Liquid; for electrical conductivity: Alternating current cell with electrodes; for speed of sound: Frequency=3 MHz, Sing-around technique in a fixed-path interferometer; for mass density: Vibrating tube method

CCCCCCCCCCn1cc[n+](C)c1.[Br-] [1-decyl-3-methylimidazolium bromide] + O
Details | electrical conductivity [S/m] | mass density [kg/m3] | speed of sound [m/s]
298.15 K, m1 = 0.0095 | – | 997.416 | 1498.6
298.15 K, m1 = 0.01379 | – | 997.587 | 1499.5
298.15 K, m1 = 0.01652 | – | 997.693 | 1500
298.15 K, m1 = 0.02179 | – | 997.899 | 1500.9
298.15 K, m1 = 0.02615 | – | 998.07 | 1501.7
298.15 K, m1 = 0.03106 | – | 998.263 | 1502.5
298.15 K, m1 = 0.03338 | – | 998.353 | 1502.9
298.15 K, m1 = 0.03397 | 0.283 | – | –
298.15 K, m1 = 0.03638 | 0.3 | – | –
298.15 K, m1 = 0.03819 | – | 998.54 | 1503.7
298.15 K, m1 = 0.03875 | 0.317 | – | –
298.15 K, m1 = 0.04039 | 0.327 | – | –
298.15 K, m1 = 0.0406 | – | 998.636 | 1503.9
298.15 K, m1 = 0.04217 | 0.338 | – | –
298.15 K, m1 = 0.04332 | – | 998.732 | 1504.2
298.15 K, m1 = 0.04391 | 0.346 | – | –
298.15 K, m1 = 0.04608 | 0.354 | – | –
298.15 K, m1 = 0.04614 | – | 998.829 | 1504.4
298.15 K, m1 = 0.04825 | 0.361 | – | –
298.15 K, m1 = 0.05051 | 0.368 | – | –
298.15 K, m1 = 0.0526 | 0.373 | – | –
298.15 K, m1 = 0.05487 | 0.379 | – | –
298.15 K, m1 = 0.05515 | – | 999.136 | 1504.7
298.15 K, m1 = 0.05749 | 0.386 | – | –
298.15 K, m1 = 0.06017 | 0.392 | – | –
298.15 K, m1 = 0.06271 | 0.398 | – | –
298.15 K, m1 = 0.06396 | – | 999.429 | 1504.8
298.15 K, m1 = 0.07815 | – | 999.895 | 1504.9
298.15 K, m1 = 0.122 | – | 1001.31 | 1505.1
298.15 K, m1 = 0.1726 | – | 1002.91 | 1505.4
298.15 K, m1 = 0.2247 | – | 1004.51 | 1505.7
298.15 K, m1 = 0.2539 | – | 1005.39 | 1505.9
303.15 K, m1 = 1e-05 | 0.00018 | – | –
303.15 K, m1 = 3e-05 | 0.000342 | – | –
303.15 K, m1 = 4e-05 | 0.000511 | – | –
303.15 K, m1 = 5e-05 | 0.000676 | – | –
303.15 K, m1 = 7e-05 | 0.000835 | – | –
303.15 K, m1 = 8e-05 | 0.001 | – | –
303.15 K, m1 = 0.00015 | 0.00183 | – | –
303.15 K, m1 = 0.00023 | 0.00267 | – | –
303.15 K, m1 = 0.00038 | 0.00443 | – | –
303.15 K, m1 = 0.00053 | 0.00608 | – | –
303.15 K, m1 = 0.00082 | 0.00939 | – | –
303.15 K, m1 = 0.00142 | 0.016 | – | –
303.15 K, m1 = 0.0023 | 0.0256 | – | –
303.15 K, m1 = 0.00351 | 0.0384 | – | –
303.15 K, m1 = 0.00463 | 0.0502 | – | –
303.15 K, m1 = 0.00617 | 0.0665 | – | –
303.15 K, m1 = 0.00896 | 0.0945 | – | –
303.15 K, m1 = 0.0095 | – | – | 1510.8
303.15 K, m1 = 0.01168 | 0.121 | – | –
303.15 K, m1 = 0.01379 | – | – | 1511.6
303.15 K, m1 = 0.01458 | 0.148 | – | –
303.15 K, m1 = 0.01652 | – | – | 1512
303.15 K, m1 = 0.01746 | 0.175 | – | –
303.15 K, m1 = 0.01986 | 0.197 | – | –
303.15 K, m1 = 0.02179 | – | – | 1512.8
303.15 K, m1 = 0.02235 | 0.218 | – | –
303.15 K, m1 = 0.0248 | 0.24 | – | –
303.15 K, m1 = 0.02615 | – | – | 1513.5
303.15 K, m1 = 0.0272 | 0.26 | – | –
303.15 K, m1 = 0.02958 | 0.28 | – | –
303.15 K, m1 = 0.03106 | – | – | 1514.3
303.15 K, m1 = 0.03192 | 0.299 | – | –
303.15 K, m1 = 0.03338 | – | – | 1514.7
303.15 K, m1 = 0.03356 | 0.312 | – | –
303.15 K, m1 = 0.0353 | 0.326 | – | –
303.15 K, m1 = 0.03765 | 0.345 | – | –
303.15 K, m1 = 0.03819 | – | – | 1515.4
303.15 K, m1 = 0.03995 | 0.361 | – | –
303.15 K, m1 = 0.0406 | – | – | 1515.5
303.15 K, m1 = 0.04173 | 0.373 | – | –
303.15 K, m1 = 0.04332 | – | – | 1515.8
303.15 K, m1 = 0.0437 | 0.385 | – | –
303.15 K, m1 = 0.04561 | 0.393 | – | –
303.15 K, m1 = 0.04614 | – | – | 1516
303.15 K, m1 = 0.0476 | 0.401 | – | –
303.15 K, m1 = 0.04986 | 0.409 | – | –
303.15 K, m1 = 0.05209 | 0.416 | – | –
303.15 K, m1 = 0.05436 | 0.423 | – | –
303.15 K, m1 = 0.05515 | – | – | 1516.2
303.15 K, m1 = 0.05698 | 0.43 | – | –
303.15 K, m1 = 0.0591 | 0.436 | – | –
303.15 K, m1 = 0.06148 | 0.443 | – | –
303.15 K, m1 = 0.06396 | – | – | 1516.2
303.15 K, m1 = 0.07815 | – | – | 1516.2
303.15 K, m1 = 0.122 | – | – | 1516.1
303.15 K, m1 = 0.1726 | – | – | 1516
303.15 K, m1 = 0.2247 | – | – | 1516
303.15 K, m1 = 0.2539 | – | – | 1515.9

Reference: the NIST ThermoML archive (doi:10.1016/j.jct.2016.06.034)
